In publication PMC12087695, “A Phenotyping Tool for Seven Cytochrome P450 Enzymes and Two Transporters: Application to Examine the Effects of Clopidogrel and Gemfibrozil” (Clinical Pharmacology and Therapeutics, 2025):

Tests used:
OATP1B3 = target: T1, OATP1B3 (Homo sapiens, UniProt Q9NPD5); assay: OATP1B3 endogenous biomarker GCDCA-3S in plasma
T1 sequence (Q9NPD5 1-702): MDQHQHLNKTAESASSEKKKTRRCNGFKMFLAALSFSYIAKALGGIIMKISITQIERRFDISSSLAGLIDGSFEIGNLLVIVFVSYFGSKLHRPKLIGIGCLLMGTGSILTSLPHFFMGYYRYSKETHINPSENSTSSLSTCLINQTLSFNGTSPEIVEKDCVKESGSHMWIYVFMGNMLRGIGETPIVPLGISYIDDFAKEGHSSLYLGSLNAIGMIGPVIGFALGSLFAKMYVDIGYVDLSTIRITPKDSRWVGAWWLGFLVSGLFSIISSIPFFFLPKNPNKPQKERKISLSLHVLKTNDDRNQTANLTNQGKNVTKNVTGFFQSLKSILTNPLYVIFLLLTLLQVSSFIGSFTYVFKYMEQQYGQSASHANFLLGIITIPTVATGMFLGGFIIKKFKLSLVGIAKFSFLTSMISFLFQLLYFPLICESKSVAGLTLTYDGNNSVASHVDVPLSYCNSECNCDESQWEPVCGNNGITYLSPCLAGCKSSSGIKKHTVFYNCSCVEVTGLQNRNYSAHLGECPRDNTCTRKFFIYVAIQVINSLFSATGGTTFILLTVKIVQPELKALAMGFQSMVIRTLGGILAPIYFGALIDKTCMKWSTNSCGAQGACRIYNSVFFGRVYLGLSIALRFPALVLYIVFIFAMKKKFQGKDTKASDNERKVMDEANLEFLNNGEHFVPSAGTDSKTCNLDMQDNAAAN
Procedure: (§1) On study days, venous blood samples from all participants were drawn from forearm vein cannulas before the administration of the pretreatment drugs and 5 minutes before and 0.5, 1, 1.5, 2, 3, 4, 6, 8, 12, and 23 hours after the administration of the index drugs for determination of index drug and metabolite concentrations. Additional venous blood samples for biomarker analyses were drawn before the administration of the pretreatment drugs and 5 minutes before and 3 hours after the administration of the index drugs.
(§2) Plasma repaglinide, OATP1B1 biomarker GCDCA‐3G, OATP1B3 biomarker GCDCA‐3S, and CYP2D6 biomarker solanidine were analyzed using Sciex 5500 Qtrap and Sciex 6500 Qtrap LC–MS systems (AB Sciex, Toronto, ON, Canada) as previously described.[20], [21], [22] The limit of quantification for repaglinide was 0.01 ng/mL. The between‐day precisions (CV%) for quality controls (0.1 and 2.0 ng/mL) were below 10% and accuracies were within ±10%. For GCDCA‐3G and GCDCA‐3S, the limit of quantification was 0.5 ng/mL and the between‐day precisions and accuracies were below 5% and ± 10% at relevant concentrations (10 and 200 ng/mL).
(§3) As for biomarkers, AUC0‐3h values in phases I–III and AUC0‐4h values in phases III–V for GCDCA‐3G and GCDCA‐3S and AUC0‐4h values in phases III and V for M430, M444, and solanidine were calculated with trapezoidal rule in Excel (Microsoft, Redmond, WA).
(§4) Individuals with poor metabolism or transport function phenotype were excluded from respective statistical comparisons. Additionally, to keep comparisons balanced, subjects lacking pharmacokinetic variable data in any study phase were excluded from the respective analyses. Prior to statistical analyses with IBM SPSS Statistics Version 29.0 for Windows (IBM Corporation, Armonk, NY), all pharmacokinetic variable values were logarithmically transformed. Pharmacokinetic variables except T max were compared between different study phases by repeated‐measures analysis of variance with study phase as a within‐subjects factor. T max values were compared with Wilcoxon signed‐rank test. Differences with P < 0.05 after the Bonferroni correction were considered statistically significant. The data are presented as geometrical mean values or geometric mean ratios with geometric CV or 90% confidence intervals (CI) if not otherwise indicated.

OATP1B1 = OATP1B1 endogenous biomarker GCDCA-3G in plasma
Procedure: as §1, §2, §3, §4

[1] = N = 16, clopidogrel pretreatment
[2] = N = 16, gemfibrozil pretreatment
[3] = N = 16, phase III full cocktail (control)
[4] = OATP1B1 normal/decreased function (N = 13), clopidogrel pretreatment
[5] = OATP1B1 normal/decreased function (N = 13), gemfibrozil pretreatment
[6] = OATP1B1 normal/decreased function (N = 13), phase III full cocktail (control)
[7] = OATP1B1 poor function (N = 3), clopidogrel pretreatment
[8] = OATP1B1 poor function (N = 3), gemfibrozil pretreatment
[9] = OATP1B1 poor function (N = 3), phase III full cocktail (control)

Structure (SMILES): C[C@H](CCC(=O)NCC(=O)O)C1CCC2C3C(CC[C@@]21C)[C@@]1(C)CC[C@@H](OS(=O)(=O)O)C[C@H]1C[C@H]3O (stereo partly drawn) [GCDCA‐3S, glycochenodeoxycholate 3‐sulfate]
- GCDCA-3S AUC0-4h, geometric mean (geometric CV) (OATP1B3; [1]): 146 (61.8%) ng × h/mL
- GCDCA-3S C0, geometric mean (geometric CV) (OATP1B3; [1]): 49.2 (69.3%) ng/mL
- GCDCA-3S AUC0-4h, geometric mean (geometric CV) (OATP1B3; [2]): 212 (46.9%) ng × h/mL
- GCDCA-3S C0, geometric mean (geometric CV) (OATP1B3; [2]): 65.5 (72.9%) ng/mL
- GCDCA-3S AUC0-3h, geometric mean (geometric CV) (OATP1B3; [3]): 141 (68.3%) ng×h/mL
- GCDCA-3S AUC0-4h, geometric mean (geometric CV) (OATP1B3; [3]): 190 (67.4%) ng × h/mL
- GCDCA-3S C0, geometric mean (geometric CV) (OATP1B3; [3]): 50.8 (85.3%) ng/mL
- GCDCA-3S AUC0-3h, geometric mean (geometric CV) (OATP1B3; N=16, phase I repaglinide only): 119 (69.0%) ng×h/mL
- GCDCA-3S AUC0-3h, geometric mean (geometric CV) (OATP1B3; N=16, phase II Geneva cocktail only): 106 (65.4%) ng×h/mL

Structure (SMILES): C[C@H](CCC(=O)NCC(=O)O)[C@H]1CC[C@H]2[C@@H]3[C@H](O)C[C@@H]4C[C@H](O[C@@H]5O[C@H](C(=O)O)[C@@H](O)[C@H](O)[C@H]5O)CC[C@]4(C)[C@H]3CC[C@]12C [GCDCA‐3G, glycochenodeoxycholate 3‐O‐glucuronide]
- GCDCA-3G AUC0-4h, geometric mean (geometric CV) (OATP1B1; [4]): 77.5 (69.9%) ng × h/mL
- GCDCA-3G C0, geometric mean (geometric CV) (OATP1B1; [4]): 21.7 (81.7%) ng/mL
- GCDCA-3G AUC0-4h, geometric mean (geometric CV) (OATP1B1; [5]): 118 (65.4%) ng × h/mL
- GCDCA-3G C0, geometric mean (geometric CV) (OATP1B1; [5]): 35.7 (82.5%) ng/mL
- GCDCA-3G AUC0-3h, geometric mean (geometric CV) (OATP1B1; [6]): 66.3 (49.6%) ng×h/mL
- GCDCA-3G AUC0-4h, geometric mean (geometric CV) (OATP1B1; [6]): 88.6 (51.3%) ng × h/mL
- GCDCA-3G C0, geometric mean (geometric CV) (OATP1B1; [6]): 22.9 (60.0%) ng/mL
- GCDCA-3G AUC0-3h, geometric mean (geometric CV) (OATP1B1; OATP1B1 normal/decreased function (N=13), phase I repaglinide only): 68.3 (61.0%) ng×h/mL
- GCDCA-3G AUC0-3h, geometric mean (geometric CV) (OATP1B1; OATP1B1 normal/decreased function (N=13), phase II Geneva cocktail only): 63.6 (75.2%) ng×h/mL
- GCDCA-3G AUC0-4h, geometric mean (geometric CV) (OATP1B1; [7]): 791 (56.1%) ng × h/mL
- GCDCA-3G C0, geometric mean (geometric CV) (OATP1B1; [7]): 238 (57.2%) ng/mL
- GCDCA-3G AUC0-4h, geometric mean (geometric CV) (OATP1B1; [8]): 809 (75.4%) ng × h/mL
- GCDCA-3G C0, geometric mean (geometric CV) (OATP1B1; [8]): 215 (79.1%) ng/mL
- GCDCA-3G AUC0-4h, geometric mean (geometric CV) (OATP1B1; [9]): 755 (48.4%) ng × h/mL
- GCDCA-3G C0, geometric mean (geometric CV) (OATP1B1; [9]): 206 (73.8%) ng/mL
